According to ChEMBL document CHEMBL5244251, “Recent researches for dual Aurora target inhibitors in antitumor field” (Eur J Med Chem, 2020):
Each block holds one compound with its values, some of them ahead of it.

Legend:
[1] = Inhibition of Xenopus laevis Aurora kinase B
Aurora kinase C = molecular target: T1, Aurora kinase C (Homo sapiens, UniProt Q9UQB9); test: Inhibition of human Aurora C
T1 sequence (Q9UQB9 whole entry): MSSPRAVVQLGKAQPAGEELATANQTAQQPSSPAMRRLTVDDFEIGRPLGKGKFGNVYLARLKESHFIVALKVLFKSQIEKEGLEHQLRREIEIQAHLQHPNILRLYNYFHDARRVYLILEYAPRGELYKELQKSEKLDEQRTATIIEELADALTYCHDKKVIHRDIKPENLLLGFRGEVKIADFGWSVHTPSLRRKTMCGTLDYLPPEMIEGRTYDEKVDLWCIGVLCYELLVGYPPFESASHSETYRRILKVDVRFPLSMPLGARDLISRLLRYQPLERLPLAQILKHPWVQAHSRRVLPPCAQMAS

[2] = Antitumor activity against human Fuji cells xenografted in mouse assessed as reduction in tumor volume; format: functional; parameters: scale not given: the % may be the effect or the level left
[3] = Antitumor activity against human Fuji cells xenografted in mouse assessed as reduction in tumor weight; format: functional; parameters: scale not given: the % may be the effect or the level left
A-375 = test: Antitumor activity against human A-375 cells xenografted in mouse assessed as tumor growth inhibition; format: functional

IC50 [1]: 3 nM
IC50 (Aurora kinase C): 15 nM
Structure (SMILES): CCNC(=O)C#Cc1ccc2c(c1)NC(=O)/C2=C(\Nc1ccc(CN(C)C)cc1)c1ccccc1

Structure (SMILES): CN(C)S(=O)(=O)c1ccc2c(c1)/C(=C/c1cc3c([nH]1)CCCC3)C(=O)N2
Activity [2]: 16%
Activity [3]: 13%

Structure (SMILES): Nc1nc(Nc2ccc(S(N)(=O)=O)cc2)nn1C(=O)c1c(F)cccc1F [JNJ-7706621]
TGI (A-375): 95%
